Data published in patent US6350737B1, “Platinum complex, its preparation and therapeutic application” (Pliva-Lachema, A.S., priority 1998, dated 2002).

Tests used:
[1] = system: lymfoblastic leucaemia line CEMt; test: MTT test, human tumor line CEMt; assay type: cell-based; details: read-out: Inhibition constant IC50
Description: (§1) The MTT test was chosen for screening the effectivity of the respective compounds. The test is based on reaction of a tetrazolium salt with respirating mitochondria of living cells. The resulted insoluble formazan is solubilized and its amount is determined on a microplate reader. […] Inhibition constant (IC50) represents such a concentration of a substance which causes 50% supression of growth of a cell culture. This constant has been determined from a graph of dependence of MTT value (mitochondrial activity of cells) on the concentration of tested substance. A GraphPad Prism programme was used for determination of the constant from the measured values, whereby Boltzman sigmoid was used for constructing a curve from single experimental points.
Comparation experiments were performed on lymfoblastic leucaemia line CEMt. The MTT test was used for evaluation of cytotoxic effect.
Vitality of cells was determined by a standard spectrophotometric MTT test based on reduction of 3-(4,5-dimethylthiazol-2-yl)-2,5-diphenyltetrazolium bromide by vital cells under formation of a formazane.

[2] = system: Ocular melanoma VUP; test: Cytotoxicity on ocular melanoma VUP; assay type: cell-based, human
Description: as §1

[3] = system: lines P 815 (mastocytoma) and L 1210 (lymphocyte leucaernia line); test: MTT test, mice tumor lines (line not stated for the carboplatin value); assay type: cell-based
Description: (§2) Cytostatic activity of compounds of the present invention has been tested in vitro on tumor lines. The MTT test was chosen for screening the effectivity of the respective compounds. The test is based on reaction of a tetrazolium salt with respirating mitochondria of living cells. The resulted insoluble formazan is solubilized and its amount is determined on a microplate reader. This method is being used as a standard one for evaluation of cytostatic effect of pharmaceutically active compounds (Tim Mosmann, Rapid colorimetric assay for cellular growth and survival, Application to proliferation and cytotoxicity assays, Journal of Immunological Methods, 65 (1983), 55-63). Inhibition constant (IC50) represents such a concentration of a substance which causes 50% supression of growth of a cell culture. This constant has been determined from a graph of dependence of MTT value (mitochondrial activity of cells) on the concentration of tested substance. A GraphPad Prism programme was used for determination of the constant from the measured values, whereby Boltzman sigmoid was used for constructing a curve from single experimental points. Chosen cell lines are standard lines used for routine screening of cytostatic effect of pharmacologically active compounds.
(§3) Within this example, lines P 815 (mastocytoma) and L 1210 (lymphocyte leucaernia line) were tested.

[4] = system: L 1210 (lymphocyte leucaernia line); test: MTT test, mice tumor line L 1210; assay type: cell-based; details: L-1210 line
Description: as §2, §3

[5] = system: solid mammal adenocarcinoma MC 2111; test: Antitumor activity in vivo, single i.v. dose, survival; set-up: species or system Mice female DBA/1
Description: Mice female DBA/1 of body mass 22.9-25.8 g were used in this experiment. Tumors were developed by s.c. inoculation of 0.2 ml of a tumor homogenate diluted in 1:1 volume ratio with an isotonic glucose solution. Tested compounds were applied in a form of an isotonic water solution prepared immediately before application by dissolution of corresponding lyophilised product in water for injections and further by dilution with isotonic sodium chloride solution ad hoc according to the need, in volumes of 0.1-0.4 ml per 20 g of body mass of an animal, as apparent from the following table.

[6] = system: P 815 (mastocytoma); test: MTT test, mice tumor line P 815; assay type: cell-based; details: P-815 line
Description: as §2, §3

For N.N.[Cl][Pt][Cl] [Cisplatin, cis-diammine-dichloroplatinum(II) complex], the IC50 [1] was 1.9 µM.

With N.N.O=C([O-])C1(C(=O)[O-])CCC1.[Pt+2] [Carboplatin, cis-diammine-/1,1-cyclobutanedicarboxylato/platinum(II) complex] the IC50 [1] was 30.4 µM, the IC50 [2] was 95 µM and the “activity relative to LA-9” value ([3]; IC50 comparison) was “approximately hundred times less active”. The IC50 ([3]; line not specified, both in a free form or as a complex with cyclodextrin) was 105 µM.

With “cis-(1-adamantylamine) amminedichloroplatinum (II) [LA-9]” the IC50 [1] was 0.36 µM, the IC50 [4] was 1.5 µM and the “Survivors (% of control)” value ([5]; 12 mg/kg single i.v. dose) was 410 % of control. For the same molecule, the Optimum dosage ([5]; animals used in the tests) was 13 to 16 mg/kg, the IC50 [2] was 9 µM and the “sensibility in comparison with Carboplatin” value ([2]; IC50 comparison) was “approximately ten times higher sensibility”. The IC50 [6] was 1.1 µM.

O=C1[O][Pt]2([NH][C@@H]3CCCC[C@H]3[NH]2)[O]C1=O [Oxaliplatin] was tested, and the IC50 [1] was 4.8 µM.
